Measured values: patent US7271264B2, “Pentacyclic oxepines and derivatives thereof, compositions and methods” (Eli Lilly and Company, priority 2002, dated 2007)
Where a name gives a salt, the structure may show the parent alone.

What was measured:
[1] = system: MCF-7 breast adenocarcinoma cells; assay: MCF-7 proliferation assay (14C-thymidine), antagonist mode; format: cell-based; conditions: E2 10 pM
Method: MCF-7 breast adenocarcinoma cells (ATCC HTB 22) are maintained in MEM (minimal essential medium, phenol red-free, Gibco BRL) supplemented with 10% fetal bovine serum (FBS) (VV), L-glutamine (2 mM), sodium pyruvate (1 mM), HEPES ((N-[2-hydroxyethyl]piperazine-N′-[2-ethanesulfonic acid]10 mM}, non-essential amino acids (0.1 mM) and Penicillin Streptomycin (1×). Seven days prior to assay, MCF-7 cells are switched to assay media which is the same as maintenance medium except supplemented with 10% dextran-coated charcoal-stripped fetal bovine serum (DCC-FBS) assay medium in place of 10% FBS. MCF-7 cells are removed from flasks using 10× Trypsin EDTA (phenol red free, Gibco BRL) and diluted to IX in (Ca++/Mg++ free HBSS (phenol red-free). Cells are adjusted to 80,000 cells/ml in assay medium. Approximately 8,000 cells (100 μl) are added to each well in 96 well Cytostar T scintillation plates (Amersham) and incubated at 37° C. in a 5% CO2 humidified incubator for 24 hours to allow cell adherence and equilibration after transfer. Serial dilutions of drugs are prepared in assay medium at 4× the final desired concentration). A 50 μl aliquot of drug dilutions (at 4× the final assay concentration) is transferred to duplicate wells followed by 50 μl assay medium for the agonist mode or 50 μl of 40 pM of E2 for the antagonist mode to a final volume of 200 μl. For each of the agonist plates, a basal level (media) and a maximum stimulated level (with 1 μM E2) is determined. For each of the antagonist plates, a basal level (media) and a E2 (10 pM) alone control is determined. After an additional 48 hours at 37° C. in a 5% CO2 humidified incubator, 20 μl of assay medium containing 0.01 μCi of ^14C-thymidine (52 mCi/mmol, 50 μCi/ul, Amersham) is added to each well. The plates are incubated overnight in the same incubator and then counted on the Wallac Microbeta counter. The data is averaged to calculate an IC50 and % inhibition @ 1 μM for the antagonist mode. For the agonist mode, an EC50 and percent of maximum E2 stimulation and concentration of maximum stimulation is calculated.

[2] = biological target: T1, ERAlpha receptor (PanVera) (Homo sapiens, UniProt P03372); assay: Competition binding assay, 3H-Estradiol, ERAlpha receptor; conditions: 3H-Estradiol competition; IC50 converted to Ki using Cheng-Prusoff equation; read-out: ER binding Ki (ERα)
T1 construct: purchased PanVera
T1 sequence (P03372 1-595): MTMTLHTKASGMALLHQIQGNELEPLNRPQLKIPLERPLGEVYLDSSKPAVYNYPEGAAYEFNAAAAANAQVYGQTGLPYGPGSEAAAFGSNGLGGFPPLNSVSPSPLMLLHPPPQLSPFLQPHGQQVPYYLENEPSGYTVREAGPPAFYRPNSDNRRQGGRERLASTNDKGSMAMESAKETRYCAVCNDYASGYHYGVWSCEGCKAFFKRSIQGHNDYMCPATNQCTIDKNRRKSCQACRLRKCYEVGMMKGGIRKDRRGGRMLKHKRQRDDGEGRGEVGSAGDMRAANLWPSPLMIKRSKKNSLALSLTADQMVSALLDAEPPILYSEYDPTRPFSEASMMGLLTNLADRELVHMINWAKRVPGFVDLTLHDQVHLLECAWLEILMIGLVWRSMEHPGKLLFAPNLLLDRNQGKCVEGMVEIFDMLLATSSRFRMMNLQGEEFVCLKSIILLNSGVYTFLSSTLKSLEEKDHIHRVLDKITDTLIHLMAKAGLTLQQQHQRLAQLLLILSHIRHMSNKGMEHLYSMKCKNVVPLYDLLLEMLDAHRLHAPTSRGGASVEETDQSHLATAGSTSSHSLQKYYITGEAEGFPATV
Method: (§1) Competition binding assay is run in a buffer containing 50 mM Hepes, pH 7.5, 1.5 mM EDTA, 150 mM NaCl, 10% glycerol, 1 mg/ml ovalbumin and 5 mM DTT, using 0.025 μCi per well ^3H-Estradiol(NEN #NET517 at 118 Ci/mmol, 1 mCi/ml), 10 ng/well ERAlpha or ERbeta receptor (PanVera). Competing compounds are added at 10 different concentrations. Non-specific binding is determined in the presence of 1 μM of 17-B Estradiol. The binding reaction (140 μl) is incubated for 4 hours at room temperature, then 70 μl of cold DCC buffer is added to each reaction (DCC buffer contains per 50 ml of assay buffer, 0.75 g of charcoal (Sigma) and 0.25 g of dextran (Pharmacia)). Plates are mixed 8 minutes on an orbital shaker at 4° C. Plates are then centrifuged at 3,000 rpm at 4° C. for 10 minutes. An aliquot of 120 μl of the mix is transferred to another 96-well, white flat bottom plate (Costar) and 175 μl of Wallac Optiphase “Hisafe 3” scintillation fluid is added to each well. Plates are sealed and shaken vigorously on an orbital shaker. After an incubation of 2.5 hrs, read plates in a Wallac Microbeta counter. The data is used to calculate an IC50 and % Inhibition at 10 μM. The Kd for ^3H-Estradiol is determined by saturation binding to ER alpha and ER beta receptors. The IC50 values for compounds are converted to Ki using Cheng-Prusoff equation and the Kd determined by saturation binding assay.

[3] = biological target: T2, ERbeta receptor (PanVera) (Homo sapiens, UniProt Q92731); assay: Competition binding assay, 3H-Estradiol, ERbeta receptor; conditions: 3H-Estradiol competition; IC50 converted to Ki using Cheng-Prusoff equation; read-out: ER binding Ki (ERβ)
T2 construct: purchased PanVera
Method: as §1

[4] = system: Ishikawa human endometrial tumor cells; assay: Ishikawa alkaline phosphatase (PNPP) assay, antagonist mode; format: cell-based; conditions: with E2 (1 nM)
From the text: (§2) Ishikawa human endometrial tumor cells are maintained in MEM (minimum essential medium, with Earle's salts and L-Glutamine, Gibco BRL, Gaithersburg, Md.), supplemented with 10% fetal bovine serum (FBS) (V/V), (Gibco BRL). One day prior to assay, growth media is changed to assay medium, DMEM/F-12 (3:1) (Dulbecco's Modified Eagle Medium: Nutrient Mixture F-12,3:1 Mixture, phenol red-free, Gibco BRL) supplemented with 5% dextran coated charcoal stripped fetal bovine serum (DCC-FBS) (Hyclone, Logen, Utah), L-Glutamine (2 mM), MEM sodium pyruvate (1 mM), HEPES (N-[2-hydroxyethyl]piperazine-N′-[2-ethanesulfonic acid] 2 mM) all from Gibco BRL). After an overnight incubation, ishikawa cells are rinsed with Dulbecco's Phosphate Buffered Saline (1×) (D-PBS) without Ca^+2 and Mg^+2 (Gibco BRL), and trypsinized by a 3 minute incubation with 0.25% Trypsin/EDTA, phenol red-free (Gibco BRL). Cells are resuspended in assay medium and adjusted to 250,000 cells/ml. Approximately 25,000 cells in a 100 ul media are added to flat-bottom 96 wells microculture plates (Costar 3596) and incubated at 37° C. in a 5% CO2 humidified incubator for 24 hours. The next day, serial dilutions of compounds are prepared in assay medium (at 6 times the final concentration in the assay). The assay is run in dual mode, agonist and antagonist modes. For the agonist mode, plates receive 25 μl/well of assay medium followed by 25 μl/well of diluted compounds (at 6× the final concentrations). For the antagonist mode, plates receive 25 μl/well of 6 nM E2 (β-Estradiol, Sigma, St. Louis, Mo.) followed by 25 μl/well of diluted compounds (at 6× the final concentrations). After an additional 48-hour incubation at 37° C. in a 5% CO2 humidified incubator, media is aspirated from wells and 100 μl fresh assay medium is added to each microculture. Serial dilutions of compounds are prepared and added to the cells as described above. After an additional 72 hour incubation at 37° C. in a 5% CO2 humidified incubator, the assay is quenched by removing media and rinsing plates twice in Dulbecco's Phosphate Buffered Saline (1×) (D-PBS) (Gibco BRL). The plates are dried for 5 min and frozen at −70° C. for at least 1 hour. The plates are then removed from the freezer and allowed to thaw at room temperature. To each well, 100 μl of 1-Step™ PNPP (Pierce Chemical Company, Rockford, Ill.) is added. After a 20-minute incubation, plates are read on a spectophotometer at 405 nm. The data is fitted to a linear interpolation to derive EC50 (for agonist mode) or IC50 (for antagonist mode) values. For the agonist mode, a % efficacy for each compound is calculated versus the response to tamoxifen. For the antagonist mode, a % efficacy for each compound is calculated versus E2 (1 nM) alone.

[5] = system: Ishikawa human endometrial tumor cells; assay: Ishikawa alkaline phosphatase (PNPP) assay, agonist mode; format: cell-based; conditions: for Ishikawa Agonist % Eff: % efficacy versus the response to tamoxifen; for EC50: Homo sapiens, Ishikawa
From the text: as §2

[6] = antagonist mode, hydrochloride salt
[7] = Homo sapiens, MCF7, antagonist mode

T2 sequence (Q92731 whole entry): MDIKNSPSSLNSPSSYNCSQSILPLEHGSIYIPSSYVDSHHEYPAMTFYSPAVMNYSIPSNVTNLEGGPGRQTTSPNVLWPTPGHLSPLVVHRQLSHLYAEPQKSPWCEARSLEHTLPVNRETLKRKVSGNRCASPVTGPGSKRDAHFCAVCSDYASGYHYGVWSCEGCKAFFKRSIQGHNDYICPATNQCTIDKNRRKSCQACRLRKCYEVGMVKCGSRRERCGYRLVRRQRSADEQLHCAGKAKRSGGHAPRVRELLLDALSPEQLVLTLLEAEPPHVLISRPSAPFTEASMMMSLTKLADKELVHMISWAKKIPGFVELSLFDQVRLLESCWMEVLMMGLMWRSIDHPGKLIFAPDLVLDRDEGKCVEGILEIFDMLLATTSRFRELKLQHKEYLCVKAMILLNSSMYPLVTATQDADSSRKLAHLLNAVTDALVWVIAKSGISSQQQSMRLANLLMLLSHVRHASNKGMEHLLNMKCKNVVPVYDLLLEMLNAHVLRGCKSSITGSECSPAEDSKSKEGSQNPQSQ

| IC50 ([1]; antagonist mode) | Ki [2] | Ki [3] | IC50 [4] | EC50 [5] | IC50 [1, 6] | IC50 ([4]; hydrochloride salt) | IC50 [1, 7] | IC50 ([4]; Homo sapiens, Ishikawa) | SMILES | Ishikawa Agonist % Eff [5] | Ishikawa Agonist % Eff ([5]; hydrochloride salt) |
| --- | --- | --- | --- | --- | --- | --- | --- | --- | --- | --- | --- |
| 160 nM | 58 nM | 120 nM | 740 nM | 54 nM |  |  |  |  | Cl.Oc1ccc2c(c1)COC(c1ccc(OCCN3CCCCC3)cc1)c1c-2ccc2cc(O)ccc12 (single isomer, unassigned) [Example 6, 11-[4-(2-Piperidin-1-yl-ethoxy)-phenyl]-11,13-dihydro-12-oxa-benzo[3,4]cyclohepta[1,2-a]naphthalene-2,8-diolhydrochloride salt] | 38% |  |
| 0.4 nM | 0.7 nM | 1.7 nM | 2.2 nM |  |  |  |  |  | Cl.Oc1ccc2c(c1)COC(c1ccc(OCCN3CCCCC3)cc1)c1c-2ccc2cc(O)ccc12 (single isomer, unassigned) [Example 7, 11-[4-(2-Piperidin-1-yl-ethoxy)-phenyl]-11,13-dihydro-12-oxa-benzo[3,4]cyclohepta[1,2-a]naphthalene-2,8-diolhydrochloride salt] | 2.6% |  |
|  | 0.7 nM | 1.4 nM |  |  | 0.4 nM | 4.3 nM |  |  | Cl.Oc1ccc2c3c(ccc2c1)-c1ccc(F)cc1COC3c1ccc(OCCN2CCCCC2)cc1 (single isomer, unassigned) [Example 8, 2-Fluoro-11-[4-(2-piperidin-1-yl-ethoxy)-phenyl]-11,13-dihydro-12-oxa-benzo[3,4]cyclohepta[1,2-a]naphthalen-8-ol hydrochloride salt] |  | 8.8% |
|  | 62 nM | 89 nM |  |  | 68 nM | 350 nM |  |  | Cl.Oc1ccc2c3c(ccc2c1)-c1ccc(F)cc1COC3c1ccc(OCCN2CCCCC2)cc1 (single isomer, unassigned) [Example 9, 2-Fluoro-11-[4-(2-piperidin-1-yl-ethoxy)-phenyl]-11,13-dihydro-12-oxa-benzo[3,4]cyclohepta[1,2-a]naphthalen-8-ol hydrochloride salt] |  | 11% |
|  | 240 nM |  |  | 300 nM |  |  |  |  | COc1ccc2c3c(sc2c1)-c1ccccc1COC3c1ccc(OCCN2CCCCC2)cc1 (stereo not drawn) [Example 1, 1-{2-[4-(10-Methoxy-5H,7H-6-oxa-12-thia-dibenzo[a,e]azulen-7-yl)-phenoxy]-ethyl}-piperidine] | 31% |  |
|  | 2.9 nM | 19 nM |  | 2.8 nM |  |  | 36 nM | 270 nM | Oc1ccc2c3c(sc2c1)-c1ccccc1COC3c1ccc(OCCN2CCCCC2)cc1 (stereo not drawn) [Example 2, 7-[4-(2-Piperidin-1-yl-ethoxy)-phenyl]-5H,7H-6-oxa-12-thia-dibenzo[a,e]azulen-10-ol] | 41% |  |
|  | 140 nM | 430 nM |  | 260 nM |  |  | 480 nM | 340 nM | COc1ccc2c3c(ccc2c1)-c1ccccc1COC3c1ccc(OCCN2CCCCC2)cc1 (stereo not drawn) [Example 3, 1-{2-[4-(8-Methoxy-11,13-dihydro-12-oxa-benzo[3,4]cyclohepta[1,2-a]naphthalen-11-yl)-phenoxy]-ethyl}-piperidine] | 21% |  |
|  | 2.6 nM | 4 nM |  | 1.4 nM |  |  | 2.4 nM | 36 nM | Oc1ccc2c3c(ccc2c1)-c1ccccc1COC3c1ccc(OCCN2CCCCC2)cc1 (stereo not drawn) [Example 4, 11-[4-(2-Piperidin-1-yl-ethoxy)-phenyl]-11,13-dihydro-12-oxa-benzo[3,4]cyclohepta[1,2-a]naphthalen-8-ol trifluoroacetate] | 17% |  |
